The values below come from publication PMC6768063 (Journal of computer-aided molecular design, 2019).

A value given as a limit tells only on which side of the number the result lay.

Assay [1] concerns the target T1, D2 receptor (Homo sapiens, UniProt P14416). Put plainly: calcium flux assay. Particulars: for EC50: read-out: EC50, agonist effect (calcium flux), D2/CHO-K1 cells, agonist mode. Format: cell-based.
The target in assay [2] is T1, D2 receptor. Particulars: cited from earlier work.
Assay [3] deals with T2, D1 receptor (Homo sapiens, UniProt P21728). The experiment in a line: cAMP assay. The format is cell-based. Particulars: for EC50: read-out: EC50, agonist effect (cAMP production), CHO-K1/D1 cells, agonist mode.
T2 sequence (P21728 whole entry): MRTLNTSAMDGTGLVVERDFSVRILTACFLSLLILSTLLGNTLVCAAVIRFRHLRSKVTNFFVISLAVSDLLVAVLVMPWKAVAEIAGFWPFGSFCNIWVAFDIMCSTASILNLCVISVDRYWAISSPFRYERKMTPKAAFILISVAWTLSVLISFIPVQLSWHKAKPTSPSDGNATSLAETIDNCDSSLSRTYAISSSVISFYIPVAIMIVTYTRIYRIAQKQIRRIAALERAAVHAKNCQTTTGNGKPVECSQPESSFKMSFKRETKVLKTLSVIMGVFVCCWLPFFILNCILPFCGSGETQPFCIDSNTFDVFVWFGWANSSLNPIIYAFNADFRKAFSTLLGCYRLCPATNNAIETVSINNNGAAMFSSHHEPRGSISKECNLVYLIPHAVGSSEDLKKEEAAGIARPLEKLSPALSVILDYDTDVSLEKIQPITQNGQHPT
The subject of assay [4] is D3 receptor. Particulars: cited from earlier work.
The test system of assay [5] is 5-HT1A receptor. The conditions noted are these: cited from earlier work.
Assay [6] concerns the target T2, D1 receptor. Particulars: cited from earlier work.
The target in assay [7] is T1, D2 receptor. Particulars: cited from earlier work. The source holds these as a separate data set.

T1 sequence (P14416 whole entry): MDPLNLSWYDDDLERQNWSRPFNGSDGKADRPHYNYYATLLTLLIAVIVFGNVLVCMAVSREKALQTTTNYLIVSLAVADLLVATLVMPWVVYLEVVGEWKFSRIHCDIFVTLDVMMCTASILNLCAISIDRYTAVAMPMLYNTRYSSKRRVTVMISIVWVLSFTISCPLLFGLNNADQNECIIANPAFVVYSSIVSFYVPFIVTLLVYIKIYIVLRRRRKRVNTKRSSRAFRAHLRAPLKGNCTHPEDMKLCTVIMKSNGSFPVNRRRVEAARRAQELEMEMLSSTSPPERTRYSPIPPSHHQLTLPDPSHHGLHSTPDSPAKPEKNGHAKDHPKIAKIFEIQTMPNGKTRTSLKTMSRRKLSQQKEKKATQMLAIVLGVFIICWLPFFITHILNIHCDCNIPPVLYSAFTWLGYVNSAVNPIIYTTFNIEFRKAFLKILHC

In the case of `CN1CCc2cc(Cl)c(O)cc2[C@@H](c2ccccc2)C1` [SCH23390, reference compound], in assay [1], the IC50 was determined as 4.06 µM.
Take `COc1cc2c(cc1OC)[C@H]1Cc3ccc(OC)c(OC)c3CN1CC2` [d-THP]: the “binding affinity for the D2 receptor (in words)” value in assay [2] is on record as “low or absent affinity”.
For `COc1ccc2c(c1O)CN1CCc3cc4c(cc3C1C2)OCO4` (stereo not drawn) [d-TU, Tetrahydroberberrubine], in assay [3] (based on the cAMP assay), the “affinity against D1 receptor (in words)” value is listed as “no affinity”. Moreover, the EC50 in assay [3] and in assay [1] was above 10 µM each time. In addition, the “affinity against D2 receptor (in words)” value in assay [1] (based on the calcium flux assay) was “no affinity”.
On to `COc1cc2c(cc1OC)[C@@H]1Cc3ccc(OC)c(OC)c3CN1CC2` [l-THP, l-tetrahydropalmatine], for which, in assay [2], the “binding affinity for the D2 receptor (in words)” value is listed as “high binding affinity”.
Turning to `COc1ccc2c(c1O)CN1CCc3cc4c(cc3C1C2)OCO4` (stereo not drawn) [l-TU, Tetrahydroberberrubine], the EC50 in assay [3] and in assay [1] was above 10 µM each time. Besides, in assay [4], the “binding affinity for D3 receptor (in words)” value is listed as “high binding affinities”. The “binding affinity for 5-HT1A receptor (in words)” value in assay [5] is on record as “high binding affinities”. Besides, the “binding affinity for D1 receptor (in words)” value in assay [6] is “high binding affinities”. Besides, in assay [7], the “binding affinity for D2 receptor (in words)” value is on record as “high binding affinities”.
